In US12076417B2, “Plasma-derived nanoparticles” (NANOMEDX, INC., priority 2016, dated 2024):

Tests used:
[1] = test system: Horseradish Peroxidase (HRP); assay: Activity of conjugated HRP detected with ABTS at 405 nm; assay type: biochemical; conditions: 0.5 μg/mL HRP, 4 hours incubation, after washing off free HRP
Protocol: NanoP^3 was collected from the nanoparticle collector under sterile conditions in a tissue culture hood with RT-PCR Grade water. The concentration of nanoparticles was measured by NanoSight LM10. Nanoparticles were then conjugated to desired antibodies (Goat anti-Rat IgG-Cy5; abcam ab6565; and Goat anti-Rabbit IgG; abcam ab150089 at 1:100 dilution), drugs (Doxorubicin: Sigma-Aldrich, D1515 at 100 μg/ml and Paclitaxel-Oregon Green 488, Invitrogen P22310 at 5 μg/mL) or proteins (Peroxidase from Horseradish; Sigma-Aldrich HRP; P6782 at 0.5 μg/mL) for up to 16 hours at 4° C., protected from light. Conjugation of HRP to 150 nm gold nanoparticles was performed (Cytodiagnostics; G-150) in an identical fashion. The samples were gently agitated using Bio RS-24 mini-rotator. […] The fluorescent intensity was measured using a plate reader, the Ex/Em were set in accordance to the fluorescent dye tag on each antibody or drug. […] For detection of HRP, conjugated nanoparticles and respective controls were incubated with ABTS (Sigma-Aldrich; A1888) and hydrogen peroxide (Merck; 386790) until colour was visible and measured at 405 nm. […]
Nanoparticles of nanoP^3 and gold (GNPs) were conjugated with horseradish peroxidase (HRP). These were detected by incubation with 2,2′-azino-bis(3-ethylbenzothiazoline-6-sulphonic acid) (ABTS). […]

[2] = Binding kinetics of ICG to nanoP^3; assay type: physicochemical
Protocol: The binding kinetics associated with the simple nanoP^3 conjugation process can be assessed by measuring the amount of bound cargo at different incubation time points and temperatures. NanoP^3 material was conjugated with the precise amount of indocyanine green (ICG) which was calculated in Example 5 to saturate the nanoparticle surface at a monolayer, i.e. 1.9×10^6 ICG molecules on a single nanoP^3 particle (99 nm radius). […] For this experiment, the plasma parameters were set at Q=3, 10 and 3 sccm for acetylene, nitrogen and argon, 150 mTorr and 50 W. The incubation of nanoP^3 (10^9 nanoP^3/mL) with ICG was performed at room temperature, in RT-PCR grade water (pH=7) for 1 hour.

mice = assay: IVIS fluorescence imaging of ICG after tail vein injection; conditions: mouse, in vivo
Protocol: In another animal experiment, mice were divided randomly into 3 groups: • 1) nanoP^3 only; • 2) nanoP^3 and ICG; or • 3) ICG only.
Following closure of the incision with silk sutures, each mouse was administered with 100 μL of the corresponding sample groups via tail vein injection: nanoP^3 control (9×10^9 nanoP^3), nanoP^3-ICG (9×10^9 nanoP^3 with 2.5 μg of ICG/10^9 nanoP^3) or ICG control (22.5 μg). Non-invasive imaging using IVIS was carried out for detection of fluorescence at Ex/Em=780 nm/820 nm.

Horseradish Peroxidase [HRP alone]
HRP activity (absorbance at 405 nm with ABTS) [1]: below background levels of activity

CC1(C)C(/C=C/C=C/C=C/C=C2\N(CCCCS(=O)(=O)[O-])c3ccc4ccccc4c3C2(C)C)=[N+](CCCCS(=O)(=O)[O-])c2ccc3ccccc3c21.[Na+] [ICG, sodium 4-[2-[(1E,3E,5E,7Z)-7-[1,1-dimethyl-3-(4-sulfonatobutyl)benzo[e]indol-2ylidene]hepta-1,3,5-trienyl]-1,1-dimethylbenzo[e]indol-3-ium-3-yl]butane-1-sulfonate]
time to surface saturation ([2]; both 24° C. and 4° C.): less than 5 minutes
total cargo immobilized on nanoP^3 within first 30 seconds ([2]; incubation at 4° C.): 60%
total cargo immobilized on nanoP^3 within first 30 seconds ([2]; incubation at 24° C.): 90%
fluorescence by IVIS at Ex/Em=780 nm/820 nm (mice): absent
